How the values were obtained:
TSLP [1] = assay: Inhibition of TNF alpha-induced TSLP expression in HaCaT cells (RT-PCR); type: cell-based, human; conditions: TNFα 50 ng/ml, extract 1 μg/ml, Dex 200 nM, mean
Description: (§1) In order to determine the anti-inflammatory activity of inventive extract, following inhibition test of cytokine expression using HaCaT cell was performed according to the procedure disclosed in the literature (Jeong et al., 2019, J. Invest. Dermatol., May; 139 (5): pp 1098-1109).
(§2) HaCaT cell (human epithelial keratinocyte cell, 300493, CLS) was inoculated into DMEM medium containing 10% Fetal bovine serum, 100 units/m1 of penicillin, 100n/m1 of streptomycin (D6429, Sigma-Aldrich Co. Ltd) and was incubated in the incubator (HERA cell 150i, Thermo Fisher Scientific Co. Ltd.) maintaining optimum humidity (85-95%) and 5% CO2 atmosphere.
(§3) For performing gene expression test, the incubated cells were transferred to 12 wells and 50 ng/ml of TNF alpha (RC214-12, Biobasic Co. Ltd) was treated therewith for 1 hour to induce inflammatory response.
(§4) 1 hour after inducing the inflammation, 1 μg/ml of inventive extract prepared in Examples was treated with identical medium and subjected to incubation for 1 hour. After the incubation, RNA (FATRR-001, Favorgen) was extracted from the cell and cDNA was synthesized from the RNA using by cDNA synthesis kit (RRO36A, TAKARA). […]

IL-1β = assay: Inhibition of TNF alpha-induced IL-1β expression in HaCaT cells (RT-PCR); type: cell-based, human; conditions: TNFα 50 ng/ml, extract 1 μg/ml, Dex 200 nM, mean
Description: as §1, §2, §3, §4

[2] = test system: DNFB-induced skin dermatitis, BALB/C female mouse; assay: DNFB-induced atopic dermatitis in BALB/C mice, skin dermatitis severity score; type: in vivo; conditions: 16th day, topical WIN-1001X 10 mg/ml, DEX 200 μM, DNFB+DIW 8.8
Description: To confirm the inhibitory effect of inventive extract on the atopic dermatitis, the animal model test using by mice, was performed according to the method disclosed in the reference (Li et al., Drug. Des. Devel. Ther., 2016, Feb. 19; 10:781-191).
(§5) 100 μL of 0.15% (w/v) DNFB (2,4-dinitrofluorobenzene, D1529, Sigma-Aldrich Co. Ltd.) was spread on […] of 6 weeks-old BALB/C female mouse (DBL Co., Ltd. Incheon, Korea) and after removing the central dorsal hair, 100 μL of 0.15% (w/v) DNFB (2,4-dinitrofluorobenzene, D1529, Sigma-Aldrich Co. Ltd.) was spread at every third day starting from at 7th day to 16th day to induce skin inflammation.
For the purpose of comparing with test group, the identical test excepting using acetone instead of DNFB and DIW instead of test sample with the above procedure was performed.

skin epidermal layer = type: in vivo, mouse; conditions: DNFB BALB/C mice, 16th day, H&E; topical WIN-1001X 10 mg/ml, DEX 200 μM; acetone+DIW = 1, DNFB+DIW 7.06
Description: (§8) Ltd.) was spread at every third day starting from at 7th day to 16th day to induce skin inflammation. […] Additionally, the histological analysis on skin tissue of test animal has been performed. Specifically, the dorsal skin tissue occurring dermatitis was fixed on 4% (w/v) paraformaldehyde solution ([MUT], Sigma-Aldrich) in shaker maintaining 4° C. (CR300, […] ) at 16th day after the sample treatment and 12 hours after the fixation, the dehydrated and transparent tissue was embedded in paraffin, sliced (5 μm of width) to make tissue slices.

[3] = test system: mast cells infiltrated into inflamed lesion; type: in vivo, mouse; conditions: DNFB BALB/C mice, 16th day, toluidine blue; topical WIN-1001X 10 mg/ml, DEX 200 μM; acetone+DIW = 1, DNFB+DIW 3.18
Description: as §8

IL-4 = IL-4 expression in dorsal skin of DNFB mice (RT-PCR); type: in vivo, mouse; conditions: 16th day, WIN-1001X 10 mg/ml, DEX 200 μM, DNFB+DIW 11.4
Description: as §5
(§6) In order to determine the anti-inflammatory activity of inventive extract, following inhibition test of cytokine expression using test animal was performed according to the procedure disclosed in the literature (Li et al., Drug. Des. Devel. Ther., 2016, Feb. 19; 10:781-191).
(§7) At 16th day after the treatment of DNFB, RNA (FATRR-001, Favorgan) was extracted from the dorsal skin of mice prepared in Experimental Example 2 and cDNA was synthesized from the RNA using by cDNA synthesis kit (RRO36A, TAKARA). The polymerization reaction was performed using by the synthesized cDNA and Sybrgreen kit (RT500M, Enzynomics) and then Real-time-PCR was performed using by primers for various cytokines involved in skin inflammation (GADPH, TSLP, GM-CSF, IL-4, IL-10, IL-13, IL-31 and IL-33) as disclosed in Table 7.

IL-10 = IL-10 expression in dorsal skin of DNFB mice (RT-PCR); type: in vivo, mouse; conditions: 16th day, WIN-1001X 10 mg/ml, DEX 200 μM, DNFB+DIW 19.3
Description: as §5, §6, §7

IL-13 = IL-13 expression in dorsal skin of DNFB mice (RT-PCR); type: in vivo, mouse; conditions: 16th day, WIN-1001X 10 mg/ml, DEX 200 μM, DNFB+DIW 48.6
Description: as §5, §6, §7

IL-22 = IL-22 expression in dorsal skin of DNFB mice (RT-PCR); type: in vivo, mouse; conditions: 16th day, WIN-1001X 10 mg/ml, DEX 200 μM, DNFB+DIW 29.2
IL-31 = IL-31 expression in dorsal skin of DNFB mice (RT-PCR); type: in vivo, mouse; conditions: 16th day, WIN-1001X 10 mg/ml, DEX 200 μM, DNFB+DIW 3.93
Description: as §5, §6, §7

IL-33 = IL-33 expression in dorsal skin of DNFB mice (RT-PCR); type: in vivo, mouse; conditions: 16th day, WIN-1001X 10 mg/ml, DEX 200 μM, DNFB+DIW 9.47
Description: as §5, §6, §7

TSLP [4] = assay: TSLP expression in dorsal skin of DNFB mice (RT-PCR); type: in vivo, mouse; conditions: 16th day, WIN-1001X 10 mg/ml, DEX 200 μM, DNFB+DIW 7.51
Description: as §5
In order to determine the anti-inflammatory activity of inventive extract, following inhibition test of TSLP cytokine expression using test animal was performed according to the procedure disclosed in the literature (Li et al., Drug. Des. Devel. Ther., 2016, Feb. 19; 10:781-191).
as §7, with “TSLP” for “various”, “inflammation” for “inflammation (GADPH, TSLP, GM-CSF, IL-4, IL-10, IL-13, IL-31 and IL-33)”

SMILES: C[C@@H]1C[C@H]2[C@@H]3CCC4=CC(=O)C=C[C@]4(C)[C@@]3(F)[C@@H](O)C[C@]2(C)[C@@]1(O)C(=O)CO [DEX, Dexamethasone]
- TSLP expression (RT-PCR, relative to untreated = 1) (TSLP [1]): 52.49
- IL-1β expression (RT-PCR, relative to untreated = 1) (IL-1β): 1.081
- Improving effect on skin dermatitis (severity score, total score 12) [2]: 2.2
- relative area of epidermis (skin epidermal layer): 1.638 fold
- relative number of mast cells [3]: 0.8548 fold
- IL-4 expression (RT-PCR, relative to acetone+DIW = 1) (IL-4): 4.798
- IL-10 expression (RT-PCR, relative to acetone+DIW = 1) (IL-10): 20.44
- IL-13 expression (RT-PCR, relative to acetone+DIW = 1) (IL-13): 12.56
- IL-22 expression (RT-PCR, relative to acetone+DIW = 1) (IL-22): 13.08
- IL-31 expression (RT-PCR, relative to acetone+DIW = 1) (IL-31): 1.001
- IL-33 expression (RT-PCR, relative to acetone+DIW = 1) (IL-33): 0.7365
- TSLP expression (RT-PCR, relative to acetone+DIW = 1) (TSLP [4]): 1.311
